Laboratory results published in ChEMBL document CHEMBL3991601, “The target landscape of clinical kinase drugs” (Science, 2017).
Blank lines part the entries; values can stand above or below the compound they belong to. Active and inactive are the calls of the source.

Assays:
[1] = biological target: Eukaryotic peptide chain release factor GTP-binding subunit ERF3B (Homo sapiens, UniProt Q8IYD1)
[2] = biological target: ALK tyrosine kinase receptor (Homo sapiens, UniProt Q9UM73); format: subcellular, K-562, COLO 205, SK-N-BE(2) and MV-4-11, Cell lysate; settings: read-out: Kd apparent
Sequence of ALK tyrosine kinase receptor (Q9UM73 whole entry): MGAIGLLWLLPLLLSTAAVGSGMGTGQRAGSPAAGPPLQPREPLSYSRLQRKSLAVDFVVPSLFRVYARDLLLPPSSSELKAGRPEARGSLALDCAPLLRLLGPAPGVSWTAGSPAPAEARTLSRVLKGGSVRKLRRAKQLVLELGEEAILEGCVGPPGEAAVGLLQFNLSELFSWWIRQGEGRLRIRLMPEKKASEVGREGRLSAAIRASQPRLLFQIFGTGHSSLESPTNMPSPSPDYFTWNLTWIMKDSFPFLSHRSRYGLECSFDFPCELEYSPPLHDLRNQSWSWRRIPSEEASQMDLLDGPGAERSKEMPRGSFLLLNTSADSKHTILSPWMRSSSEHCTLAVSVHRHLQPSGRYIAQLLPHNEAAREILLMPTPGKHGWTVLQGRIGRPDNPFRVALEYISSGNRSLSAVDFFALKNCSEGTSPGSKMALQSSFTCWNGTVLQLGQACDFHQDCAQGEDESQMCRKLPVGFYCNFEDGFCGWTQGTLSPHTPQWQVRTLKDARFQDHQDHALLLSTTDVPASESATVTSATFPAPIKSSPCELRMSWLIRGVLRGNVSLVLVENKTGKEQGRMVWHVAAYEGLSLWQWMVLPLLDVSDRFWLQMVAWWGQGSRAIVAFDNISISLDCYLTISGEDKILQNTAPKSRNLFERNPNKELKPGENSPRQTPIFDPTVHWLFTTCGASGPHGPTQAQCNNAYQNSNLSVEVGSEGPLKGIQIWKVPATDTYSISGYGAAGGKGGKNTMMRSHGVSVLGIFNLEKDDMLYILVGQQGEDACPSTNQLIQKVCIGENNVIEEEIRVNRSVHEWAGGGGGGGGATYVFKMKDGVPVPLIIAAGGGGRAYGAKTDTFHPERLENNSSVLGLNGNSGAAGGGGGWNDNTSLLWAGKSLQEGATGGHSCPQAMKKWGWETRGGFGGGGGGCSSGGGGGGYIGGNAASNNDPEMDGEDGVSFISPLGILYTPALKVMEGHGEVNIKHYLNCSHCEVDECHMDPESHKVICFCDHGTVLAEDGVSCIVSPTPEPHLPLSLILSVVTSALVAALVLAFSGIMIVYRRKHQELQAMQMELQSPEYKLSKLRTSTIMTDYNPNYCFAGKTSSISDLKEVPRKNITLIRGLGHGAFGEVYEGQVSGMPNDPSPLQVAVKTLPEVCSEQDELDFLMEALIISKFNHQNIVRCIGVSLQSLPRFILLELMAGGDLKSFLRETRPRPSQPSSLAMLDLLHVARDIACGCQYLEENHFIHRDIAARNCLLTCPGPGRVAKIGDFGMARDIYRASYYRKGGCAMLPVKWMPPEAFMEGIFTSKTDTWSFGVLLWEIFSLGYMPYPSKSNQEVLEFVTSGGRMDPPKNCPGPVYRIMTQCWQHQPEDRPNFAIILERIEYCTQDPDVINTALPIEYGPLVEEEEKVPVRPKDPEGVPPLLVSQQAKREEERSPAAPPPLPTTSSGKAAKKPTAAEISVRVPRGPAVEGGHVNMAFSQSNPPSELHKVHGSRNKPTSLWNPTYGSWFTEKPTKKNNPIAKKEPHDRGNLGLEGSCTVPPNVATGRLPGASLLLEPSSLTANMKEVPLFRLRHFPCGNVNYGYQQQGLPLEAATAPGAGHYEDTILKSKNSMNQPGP

[3] = biological target: Tyrosine-protein kinase Fgr (Homo sapiens, UniProt P09769)
Sequence of Tyrosine-protein kinase Fgr (P09769 whole entry): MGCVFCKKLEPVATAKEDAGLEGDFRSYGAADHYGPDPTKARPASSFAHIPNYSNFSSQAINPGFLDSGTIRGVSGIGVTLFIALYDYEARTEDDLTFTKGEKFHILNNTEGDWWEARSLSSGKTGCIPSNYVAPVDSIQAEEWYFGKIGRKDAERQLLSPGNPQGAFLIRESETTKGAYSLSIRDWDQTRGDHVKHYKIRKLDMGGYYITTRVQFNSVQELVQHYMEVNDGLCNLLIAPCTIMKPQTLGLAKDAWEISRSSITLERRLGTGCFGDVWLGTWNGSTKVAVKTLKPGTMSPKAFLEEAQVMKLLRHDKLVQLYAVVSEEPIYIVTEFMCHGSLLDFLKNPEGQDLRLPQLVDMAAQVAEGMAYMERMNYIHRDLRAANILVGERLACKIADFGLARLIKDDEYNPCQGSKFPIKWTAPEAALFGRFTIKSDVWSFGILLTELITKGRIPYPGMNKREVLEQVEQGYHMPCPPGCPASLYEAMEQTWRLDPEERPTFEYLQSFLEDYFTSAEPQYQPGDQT

[4] = biological target: Tyrosine-protein kinase JAK2 (Homo sapiens, UniProt O60674)
[5] = biological target: Cyclin-dependent kinase 10 (Homo sapiens, UniProt Q15131)
Sequence of Cyclin-dependent kinase 10 (Q15131 whole entry): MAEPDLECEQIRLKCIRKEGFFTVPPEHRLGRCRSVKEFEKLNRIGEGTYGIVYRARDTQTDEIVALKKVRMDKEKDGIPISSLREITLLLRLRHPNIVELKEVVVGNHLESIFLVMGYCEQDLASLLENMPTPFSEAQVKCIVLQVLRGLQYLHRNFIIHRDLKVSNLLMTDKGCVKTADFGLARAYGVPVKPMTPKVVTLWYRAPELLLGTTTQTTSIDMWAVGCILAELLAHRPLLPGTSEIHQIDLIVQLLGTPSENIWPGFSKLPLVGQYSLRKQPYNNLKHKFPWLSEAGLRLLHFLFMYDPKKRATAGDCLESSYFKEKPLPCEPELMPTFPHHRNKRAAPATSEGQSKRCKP

[6] = biological target: Nucleoside diphosphate kinase B (Homo sapiens, UniProt P22392)
[7] = biological target: Putative nucleoside diphosphate kinase (Homo sapiens, UniProt O60361)
[8] = biological target: Activin receptor type-1-like (Homo sapiens, UniProt P37023)
Sequence of Activin receptor type-1-like (P37023 whole entry): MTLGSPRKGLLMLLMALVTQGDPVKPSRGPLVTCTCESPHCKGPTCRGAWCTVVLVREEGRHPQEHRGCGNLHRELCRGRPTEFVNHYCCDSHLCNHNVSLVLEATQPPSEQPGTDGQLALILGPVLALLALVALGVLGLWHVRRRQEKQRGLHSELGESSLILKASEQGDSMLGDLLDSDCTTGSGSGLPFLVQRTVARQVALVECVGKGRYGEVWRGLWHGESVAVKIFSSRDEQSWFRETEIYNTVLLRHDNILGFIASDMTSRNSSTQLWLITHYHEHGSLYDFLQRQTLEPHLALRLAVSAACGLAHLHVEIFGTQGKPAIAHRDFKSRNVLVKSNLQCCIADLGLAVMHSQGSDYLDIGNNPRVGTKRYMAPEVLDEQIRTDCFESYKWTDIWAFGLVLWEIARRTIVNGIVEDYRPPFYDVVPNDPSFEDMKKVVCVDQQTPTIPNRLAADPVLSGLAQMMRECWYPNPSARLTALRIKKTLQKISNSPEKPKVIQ

[9] = biological target: Dual specificity tyrosine-phosphorylation-regulated kinase 1B (Homo sapiens, UniProt Q9Y463)
Sequence of Dual specificity tyrosine-phosphorylation-regulated kinase 1B (Q9Y463 whole entry): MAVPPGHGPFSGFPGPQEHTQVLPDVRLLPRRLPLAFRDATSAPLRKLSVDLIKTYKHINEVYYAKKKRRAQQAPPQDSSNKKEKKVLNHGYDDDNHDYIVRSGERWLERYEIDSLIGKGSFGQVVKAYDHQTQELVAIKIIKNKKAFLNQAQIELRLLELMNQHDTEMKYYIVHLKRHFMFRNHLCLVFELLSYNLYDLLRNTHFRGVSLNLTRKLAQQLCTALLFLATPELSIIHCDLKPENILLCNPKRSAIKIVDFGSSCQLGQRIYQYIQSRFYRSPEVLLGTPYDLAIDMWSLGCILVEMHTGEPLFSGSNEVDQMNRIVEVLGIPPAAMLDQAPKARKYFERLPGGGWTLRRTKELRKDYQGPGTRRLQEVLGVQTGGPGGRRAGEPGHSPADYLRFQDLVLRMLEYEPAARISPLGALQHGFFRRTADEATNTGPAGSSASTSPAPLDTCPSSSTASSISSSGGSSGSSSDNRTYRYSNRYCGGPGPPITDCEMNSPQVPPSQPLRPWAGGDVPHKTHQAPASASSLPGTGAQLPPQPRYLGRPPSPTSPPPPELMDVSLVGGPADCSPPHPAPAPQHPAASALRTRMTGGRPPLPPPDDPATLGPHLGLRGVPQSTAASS

Actin-related protein 3 = Actin-related protein 3 (Homo sapiens, UniProt P61158)
[10] = biological target: Cyclin-dependent kinase 18 (Homo sapiens, UniProt Q07002)
[11] = biological target: Mast/stem cell growth factor receptor Kit (Homo sapiens, UniProt P10721)
Sequence of Mast/stem cell growth factor receptor Kit (P10721 whole entry): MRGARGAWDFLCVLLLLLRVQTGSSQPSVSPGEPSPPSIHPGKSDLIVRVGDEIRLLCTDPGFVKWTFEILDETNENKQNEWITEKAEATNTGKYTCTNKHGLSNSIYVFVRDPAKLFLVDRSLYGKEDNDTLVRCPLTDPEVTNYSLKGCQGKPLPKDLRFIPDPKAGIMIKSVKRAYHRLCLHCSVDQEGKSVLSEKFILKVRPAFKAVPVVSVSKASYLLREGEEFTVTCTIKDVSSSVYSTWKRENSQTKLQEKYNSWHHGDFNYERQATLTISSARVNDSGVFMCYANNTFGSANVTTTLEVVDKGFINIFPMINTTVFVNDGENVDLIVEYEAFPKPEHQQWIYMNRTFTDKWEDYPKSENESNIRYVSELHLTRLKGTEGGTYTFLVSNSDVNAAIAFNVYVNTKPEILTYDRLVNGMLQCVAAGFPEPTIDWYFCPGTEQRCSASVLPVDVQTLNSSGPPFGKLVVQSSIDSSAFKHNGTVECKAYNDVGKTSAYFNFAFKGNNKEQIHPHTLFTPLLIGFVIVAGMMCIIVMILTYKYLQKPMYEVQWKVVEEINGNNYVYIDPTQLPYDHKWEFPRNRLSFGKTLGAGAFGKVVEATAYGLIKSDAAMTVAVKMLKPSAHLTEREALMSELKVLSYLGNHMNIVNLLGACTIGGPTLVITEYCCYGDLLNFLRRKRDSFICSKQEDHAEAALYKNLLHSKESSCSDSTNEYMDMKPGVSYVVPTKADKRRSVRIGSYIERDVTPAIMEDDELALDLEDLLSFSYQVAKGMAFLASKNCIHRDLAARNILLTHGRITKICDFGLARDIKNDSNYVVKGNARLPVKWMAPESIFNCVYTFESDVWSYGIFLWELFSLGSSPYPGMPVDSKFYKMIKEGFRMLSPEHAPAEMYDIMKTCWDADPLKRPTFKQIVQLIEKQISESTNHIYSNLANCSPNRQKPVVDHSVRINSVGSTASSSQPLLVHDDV

[12] = biological target: Ras-related C3 botulinum toxin substrate 1 (Homo sapiens, UniProt P63000)
[13] = biological target: Cyclin-dependent kinase 9 (Homo sapiens, UniProt P50750)
Sequence of Cyclin-dependent kinase 9 (P50750 whole entry): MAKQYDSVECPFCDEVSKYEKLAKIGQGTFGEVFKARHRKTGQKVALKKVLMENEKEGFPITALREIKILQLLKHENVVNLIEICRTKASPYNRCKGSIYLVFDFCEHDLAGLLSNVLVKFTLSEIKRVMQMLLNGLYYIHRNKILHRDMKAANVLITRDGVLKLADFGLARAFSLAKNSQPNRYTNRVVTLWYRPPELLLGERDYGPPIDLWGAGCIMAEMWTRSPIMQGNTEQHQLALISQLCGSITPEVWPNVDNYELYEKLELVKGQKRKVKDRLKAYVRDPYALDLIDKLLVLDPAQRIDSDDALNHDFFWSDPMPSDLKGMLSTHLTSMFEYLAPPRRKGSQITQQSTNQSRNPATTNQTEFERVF
Further: in the data inactive means no Kd found up to 30 µM.

Compound: C[C@H]1CNCCCN1S(=O)(=O)c1cccc2cncc(F)c12
Kd [1]: > 30 µM (inactive)

Compound: CC(=O)c1cnc2ccc(-c3cc(Cl)c(O)c(Cl)c3)nc2c1N[C@H]1CC[C@H](CN(C)C)CC1
Kd [2]: > 30 µM (inactive) | Kd [1]: > 30 µM (inactive)

Compound: Cc1nc2cc(-c3nn(C(C)C)c4ncnc(N)c34)ccc2o1
Kd [3]: > 30 µM (inactive) | Kd [1]: > 30 µM (inactive) | Kd [4]: > 30 µM (inactive)

Compound: COCc1c(-c2ccc(NC(=O)Nc3cc(C(F)(F)F)ccc3F)c(F)c2)c2c(N)ncnn2c1CN1CCOCC1
Kd [2]: > 30 µM (inactive)

Compound: COc1cc(Nc2ncc3c(n2)-c2ccc(Cl)cc2C(c2c(F)cccc2OC)=NC3)ccc1C(=O)O [ALISERTIB]
Kd [5]: > 30 µM (inactive) | Kd [6]: > 30 µM (inactive) | Kd [7]: > 30 µM (inactive)

Compound: O=C(Nc1c[nH]nc1-c1nc2cc(CN3CCOCC3)ccc2[nH]1)NC1CC1 [AT-9283]
Kd [2]: > 30 µM (inactive) | Kd [8]: 0.015 µM (active) | Kd [5]: 0.009 µM

Compound: C=CC(=O)Nc1cc2c(Nc3ccc(F)c(Cl)c3)ncnc2cc1C#CC(C)(C)N1CCN(C)CC1 [AV-412 FREE BASE]
Kd [9]: > 30 µM (inactive)

Compound: CNC(=O)c1ccccc1Sc1ccc2c(/C=C/c3ccccn3)n[nH]c2c1 [AXITINIB]
Kd [1]: > 30 µM (inactive)

Compound: COc1cc([C@@H]2c3cc4c(cc3[C@H](O)[C@H]3COC(=O)[C@@H]23)OCO4)cc(OC)c1OC [AXL-1717]
Kd [5]: > 30 µM (inactive)

Compound: NC(=O)Nc1cc(-c2cccc(F)c2)sc1C(=O)N[C@H]1CCCNC1 [AZD-7762]
Kd (Actin-related protein 3): > 30 µM (inactive) | Kd [8]: > 30 µM (inactive) | Kd [5]: > 30 µM (inactive)

Compound: Cn1cnc2c(F)c(Nc3ccc(Br)cc3F)c(C(=O)NOCCO)cc21 [BINIMETINIB]
Kd [8]: > 30 µM (inactive) | Kd [5]: > 30 µM (inactive) | Kd [3]: > 30 µM (inactive)

Compound: Cc1cc(Nc2ncc(Cl)c(Nc3ccccc3S(=O)(=O)C(C)C)n2)c(OC(C)C)cc1C1CCNCC1 [CERITINIB]
Kd [9]: > 30 µM (inactive)

Compound: COCC(=O)NC/C=C/c1ccc2ncnc(Nc3ccc(Oc4ccc(C)nc4)c(C)c3)c2c1 [CP-724714]
Kd [2]: > 30 µM (inactive)

Compound: CC(C)(C)c1nc(-c2cccc(NS(=O)(=O)c3c(F)cccc3F)c2F)c(-c2ccnc(N)n2)s1 [DABRAFENIB]
Kd [5]: > 30 µM (inactive) | Kd [9]: > 30 µM (inactive) | Kd [3]: 1.55 µM (active) | Kd [1]: > 30 µM (inactive)

Compound: Cc1nc2cc(-n3ncc(C(=O)c4cc5ccccc5[nH]4)c3N)ccc2[nH]1 [FGFR INHIBITOR DEBIO 1347]
Kd [3]: > 30 µM (inactive)

Compound: Cc1cccc(-c2nn3c(c2-c2ccnc4ccc(C(N)=O)cc24)CCC3)n1 [GALUNISERTIB]
Kd [2]: > 30 µM (inactive) | Kd [9]: > 30 µM (inactive) | Kd [1]: > 30 µM (inactive)

Compound: CNC(=O)c1nn(C)c2c1C(C)(C)Cc1cnc(Nc3ccc(N4CCN(C)CC4)cc3)nc1-2 [MILCICLIB]
Kd [6]: > 30 µM (inactive)

Compound: NC1(c2ccc(-c3nc4ccn5c(=O)[nH]nc5c4cc3-c3ccccc3)cc2)CCC1 [MK-2206]
Kd [9]: > 30 µM (inactive)

Compound: CN(C[C@@H]1COCCO1)S(=O)(=O)Nc1ccc2ccc3ncc(-c4cnn(C)c4)cc3c(=O)c2c1 [MK-2461]
Kd [2]: > 30 µM (inactive) | Kd [10]: > 30 µM (inactive)

Compound: Cn1cc(-c2cnc3ccc4ccc(CS(=O)(=O)NCc5ccccn5)cc4c(=O)c3c2)cn1 [MK-8033]
Kd [8]: > 30 µM (inactive) | Kd [9]: > 30 µM (inactive) | Kd [1]: > 30 µM (inactive) | Kd [4]: > 30 µM (inactive)

Compound: FC(F)(F)c1ccc(/C=C/c2nc(COc3ccc(CCCCn4ccnn4)cc3)co2)cc1 [MUBRITINIB]
Kd [5]: > 30 µM (inactive) | Kd [6]: > 30 µM (inactive)

Compound: COc1ncc(-c2ccc3nccc(-c4ccnnc4)c3c2)cc1NS(=O)(=O)c1ccc(F)cc1F [OMIPALISIB]
Kd [2]: > 30 µM (inactive) | Kd [11]: > 30 µM (inactive) | Kd [6]: > 30 µM (inactive) | Kd [7]: > 30 µM (inactive)

Compound: Cc1[nH]c(/C=C2\C(=O)Nc3ccccc32)c(C)c1CCC(=O)O [ORANTINIB]
Kd [5]: > 30 µM (inactive) | Kd [3]: > 30 µM (inactive)

Compound: CCOc1cc2ncc(C#N)c(Nc3ccc(F)c(Cl)c3)c2cc1NC(=O)/C=C/CN(C)C [PELITINIB]
Kd [5]: > 30 µM (inactive)

Compound: CCCCCCCCCCCCCCCCCCOP(=O)([O-])OC1CC[N+](C)(C)CC1 [PERIFOSINE]
Kd [12]: > 30 µM (inactive)

Compound: Cc1cnc(NC(=O)Nc2cc(Br)c(C)cc2OC[C@@H]2CNCCO2)cn1 [RABUSERTIB]
Kd [5]: > 30 µM (inactive) | Kd [1]: > 30 µM (inactive) | Kd [4]: > 30 µM (inactive)

Compound: CNC(=O)c1cc(Oc2ccc(NC(=O)Nc3cc(C(C)(C)C)nn3-c3ccc4ncccc4c3)c(F)c2)ccn1 [REBASTINIB]
Kd [4]: 4.46 µM (active)

Compound: CO[C@H]1C[C@@H]2CC[C@@H](C)[C@@](O)(O2)C(=O)C(=O)N2CCCC[C@H]2C(=O)O[C@H]([C@H](C)C[C@@H]2CC[C@@H](OP(C)(C)=O)[C@H](OC)C2)CC(=O)[C@H](C)/C=C(\C)[C@@H](O)[C@@H](OC)C(=O)[C@H](C)C[C@H](C)/C=C/C=C/C=C/1C [RIDAFOROLIMUS]
Kd [5]: > 30 µM (inactive) | Kd [13]: > 30 µM (inactive) | Kd [9]: 1.26 µM | Kd [1]: > 30 µM (inactive) | Kd [4]: > 30 µM (inactive)

Compound: N#CC1(c2ccc(NC(=O)c3cccnc3NCc3ccncc3)cc2)CCCC1 [RIVOCERANIB]
Kd [9]: > 30 µM (inactive) | Kd [4]: > 30 µM (inactive)

Compound: N#CC[C@H](C1CCCC1)n1cc(-c2ncnc3[nH]ccc23)cn1 [RUXOLITINIB]
Kd [1]: > 30 µM (inactive)

Compound: O=c1[nH]ccc2cc(OC3CCNCC3)ccc12 [SAR-407899 FREE BASE]
Kd [1]: > 30 µM (inactive) | Kd [11]: > 30 µM (inactive)

Compound: CN1CCN(CCOc2cc(OC3CCOCC3)c3c(Nc4c(Cl)ccc5c4OCO5)ncnc3c2)CC1 [SARACATINIB]
Kd [5]: > 30 µM (inactive) | Kd [4]: > 30 µM (inactive) | Kd [6]: > 30 µM (inactive)

Compound: CO[C@H]1C[C@@H]2CC[C@@H](C)[C@@](O)(O2)C(=O)C(=O)N2CCCC[C@H]2C(=O)O[C@H]([C@H](C)C[C@@H]2CC[C@@H](O)[C@H](OC)C2)CC(=O)[C@H](C)/C=C(\C)[C@@H](O)[C@@H](OC)C(=O)[C@H](C)C[C@H](C)/C=C/C=C/C=C/1C [SIROLIMUS]
Kd [8]: > 30 µM (inactive) | Kd [10]: > 30 µM (inactive) | Kd [13]: > 30 µM (inactive) | Kd [9]: > 30 µM (inactive) | Kd [3]: > 30 µM (inactive) | Kd [4]: > 30 µM (inactive)

Compound: CO[C@H]1C[C@@H]2CC[C@@H](C)[C@@](O)(O2)C(=O)C(=O)N2CCCC[C@H]2C(=O)O[C@H]([C@H](C)C[C@@H]2CC[C@@H](OC(=O)C(C)(CO)CO)[C@H](OC)C2)CC(=O)[C@H](C)/C=C(\C)[C@@H](O)[C@@H](OC)C(=O)[C@H](C)C[C@H](C)/C=C/C=C/C=C/1C [TEMSIROLIMUS]
Kd [2]: > 30 µM (inactive) | Kd [5]: > 30 µM (inactive) | Kd [13]: > 30 µM (inactive) | Kd [3]: > 30 µM (inactive) | Kd [1]: > 30 µM (inactive) | Kd [4]: > 30 µM (inactive)

Compound: O=C(Cc1ccc(-c2ccc(OCCN3CCOCC3)cc2)cn1)NCc1ccccc1 [TIRBANIBULIN]
Kd [8]: > 30 µM (inactive) | Kd [9]: > 30 µM (inactive) | Kd [3]: > 30 µM (inactive) | Kd [1]: > 30 µM (inactive) | Kd [4]: > 30 µM (inactive)

Compound: C[C@@H](NC(=O)c1ncnc(N)c1Cl)c1ncc(C(=O)Nc2cc(C(F)(F)F)c(Cl)cn2)s1 [TOVORAFENIB]
Kd [5]: > 30 µM (inactive) | Kd [9]: > 30 µM (inactive)

Compound: Cc1cc(Nc2ncnc3ccc(NC4=NC(C)(C)CO4)cc23)ccc1Oc1ccn2ncnc2c1 [TUCATINIB]
Kd [2]: > 30 µM (inactive) | Kd [10]: > 30 µM (inactive) | Kd [12]: > 30 µM (inactive)

Compound: C[C@@H](N)c1ccc(C(=O)Nc2ccnc3[nH]ccc23)cc1 [Y-39983]
Kd [11]: > 30 µM (inactive)

Now from value to compound:

Kd [2]: > 30 µM (inactive)
Compound: Nc1ncnc2c1c(-c1cccc(OCc3ccccc3)c1)cn2[C@H]1C[C@@H](CN2CCC2)C1 [AEW-541]

Kd [8]: > 30 µM (inactive) | Kd [4]: > 30 µM (inactive)
Compound: Cc1csc(-c2nnc(Nc3ccc(Oc4ncccc4-c4ccnc(N)n4)cc3)c3ccccc23)c1 [AMG-900]

Kd [8]: > 30 µM (inactive) | Kd [3]: > 30 µM (inactive) | Kd [4]: > 30 µM (inactive)
Compound: Cc1cc(C(=O)NOCCO)c(Nc2ccc(I)cc2F)n(C)c1=O [AZD-8330]

Kd [2]: > 30 µM (inactive) | Kd [8]: > 30 µM (inactive) | Kd [1]: > 30 µM (inactive) | Kd [4]: > 30 µM (inactive)
Compound: CCn1c(C(=O)N(C2CC2)C2CC2)cc2c3c(ncn3C)c(Nc3cc(C)n(C)n3)nc21 [BMS-911543]

Kd [5]: > 30 µM (inactive)
Compound: COc1cc2ncnc(Oc3cccc(NC(=O)Nc4cc(C(C)(C)C(F)(F)F)on4)c3)c2cc1OC [CEP-32496]

Kd [8]: > 30 µM (inactive) | Kd [3]: > 30 µM (inactive) | Kd [4]: > 30 µM (inactive) | Kd [6]: 0.142 µM (active)
Compound: C#Cc1cccc(Nc2ncnc3cc(OC)c(OCCCCCCC(=O)NO)cc23)c1 [CUDC-101]

Kd [9]: > 30 µM (inactive) | Kd [3]: > 30 µM (inactive) | Kd [4]: > 30 µM (inactive)
Compound: CCn1cc(-c2ccnc3[nH]c(-c4cccc(CN(C)C)c4)cc23)c(-c2ccc(NC(=O)N(C)C)cc2)n1 [GSK-1070916]

Kd [3]: > 30 µM (inactive)
Compound: COc1ccc(S(=O)(=O)N(C(C)=O)c2ccccc2/C=C/c2cc[n+]([O-])cc2)cc1 [HMN-214]

Kd [3]: > 30 µM (inactive)
Compound: NC(=O)c1c(OCc2c(F)cc(Br)cc2F)nsc1NC(=O)NCCCCN1CCCC1 [OSI-632]

Kd (Actin-related protein 3): > 30 µM (inactive) | Kd [5]: > 30 µM (inactive) | Kd [10]: 0.067 µM (active)
Compound: Cc1nc(Nc2n[nH]c3c2CN(C(=O)N[C@H](CN(C)C)c2ccccc2)C3(C)C)c2sccc2n1 [PF-03758309]

Kd [3]: > 30 µM (inactive)
Compound: Cn1cc(-c2cnn3c(N)c(Br)c([C@@H]4CCCNC4)nc23)cn1 [SCH-900776]
